{
  "source": "patent US6391301B1",
  "about": "“Agent for identifying and treating metastasizing tumors” (Forschungszentrum Karlsruhe GmbH, priority 1998, dated 2002)",
  "data": [
    {"tested_on": "M-N#1 antibody binding to proteins in lysates from MT-450 cells", "assay": "Competition of M-N#1 binding with fucose and galactose (immunoprecipitation)", "parameters": "species or system rat", "details": "increasing amounts of sugar, lysates from radiolabelled MT-450 cells", "experimental": "Immunoprecipitation: cells were labeled by incubation with (^35S)L-methionine ([…]) in methionine-free RPMI medium supplemented with dialyzed FCS for 4 h. For a pulse-chase analysis, cells were incubated with (^35S)L-methionine ([…]) in methionine-free RPMI medium supplemented with dialyzed FCS for 15 minutes, then washed and incubated further with methionine-containing medium. For immunoprecipitations, cells were lyzed in RIPA (radioimmunoprecipitation) buffer, and aliquots were immunoprecipitated with 5 μg of antibodies. To purify proteins which bind to Ulex europaeus lectin, the cells were lyzed with PBS/1% NP40/1 mM PMSF and centrifuged, and the lysates were incubated with Ulex europaeus lectin beads at 4° C. for one hour. The beads were then washed three times with PBS, and the excess buffer was removed. The beads were boiled in 1% SDS/20 mM phosphate at pH 7.0. A 20-fold excess of RIPA buffer was then added, and the supernatant was used for the immunoprecipitation after removal of the Ulex europaeus lectin beads. In experiments in which immunoprecipitated proteins were treated with 0.5 U of N-glycosidase F, 2.5 mU of O-glycosidase or 5 mU of neuraminidase, the antigen-antibody matrix bead complex was initially washed in 100 mM phosphate buffer, pH 7.0. Buffer was removed and then the matrix beads were boiled in 5 μl of 1% SDS/20 mM phosphate, pH 7.0, for 5 minutes. The enzymes were then added in 45 μl of 20 mM phosphate buffer (pH 7.0)/1 mM CaSO4. The efficiency of the enzyme reaction was confirmed by comparison with similar digestive processes on immunoprecipitated CD44v4-v7 protein, which is digested by each of said enzymes. Immunoprecipitated proteins were removed by SDS (sodium dodecyl sulfate) PAGE (polyacrylamide gel electrophoresis). Gels were treated with PPO (2,5-diphenyloxazole) and exposed to X-ray sensitive film material.\nCompetition of M-N#1 binding with fucose and galactose. […]", "values": [
      {"smiles": "C[C@H](O)[C@@H](O)[C@@H](O)[C@H](O)C=O", "note": "[L-Fucose]", "Effect on protein binding to M-N#1 antibody": "no effect"},
      {"smiles": "C[C@@H](O)[C@H](O)[C@H](O)[C@@H](O)C=O", "note": "[D-fucose]", "Effect on protein binding to M-N#1 antibody": "inhibited"},
      {"smiles": "O=C[C@H](O)[C@@H](O)[C@@H](O)[C@H](O)CO", "note": "[D-galactose]", "Effect on protein binding to M-N#1 antibody": "inhibited"}
    ]}
  ]
}
